# Test results taken from PubChem BioAssay AID2305 (GlaxoSmithKline (GSK), 2010).
# Test system: P. falciparum 3D7 growth, pLDH absorbance
# Assay: P. falciparum 3D7 growth inhibition, dose response, strain 3D7 (AID 2305)
row,Structure (SMILES),IC50 [nM]
1,Oc1cc(Nc2ccnc3cc(-c4cccc(CN5CCOCC5)c4)ccc23)c(F)cc1Cl,210
2,O=C(Nc1cccc(Cl)c1)c1cnc(N2CCN(c3ccncc3)CC2)c(Cl)c1,960
3,COc1cccc(-c2csc(C(=O)NC3CCCCN(Cc4ccc(C(C)(C)C)cc4)C3)c2)c1 (configuration not stated),890
4,O=C(NCCCCCN1CCC(c2c[nH]c3ccccc23)CC1)Nc1ccc(I)c(Cl)c1,970
5,CC(=O)N1CCC(C(=O)Nc2ccc(-c3cccc(-c4nc5ccc(C(F)(F)F)cc5[nH]4)c3)cc2)CC1,240
6,C=CCn1c(SCc2c(C)noc2C)nc2scc(-c3cccs3)c2c1=O,1100
7,Cc1nc(N2CCC(C)CC2)c2c3c(sc2n1)CCCC3,1060
8,COc1cc(Br)c(NC(=O)Nc2ccc(C(F)(F)F)c(O[C@@H]3CCN(C)C3)c2)cc1OC,630
9,Cc1ccccc1C1=CCN(CCCN2c3ccccc3Sc3ccc(Cl)cc32)CC1,870
10,COc1ccc(-c2cccc(NC(=O)c3ccc(Cl)cc3)c2)cc1CN1CCC(O)CC1,790
11,COc1cc(Cl)c(C)cc1-n1cc(C(=O)c2cc(Br)ccc2O)cc(C#N)c1=O,870
12,C[C@@H](NC(=O)NC(CCN1CCC2(CC1)CN(S(C)(=O)=O)c1ccccc12)c1ccc(Cl)c(Cl)c1)c1ccccc1 (some centres not stated),900
13,COc1ccc(Cl)cc1N1CCN(CCCNC(=O)c2ccc(-c3nc4cc(Cl)c(F)cc4[nH]3)cc2)CC1,1060
14,c1ccc2[nH]c(Nc3ccc(Nc4nc5ccccc5[nH]4)cc3)nc2c1,780
15,O=C(NCC1CCN(CC2CCCCC2)C1)c1cc(-c2cccc(C(F)(F)F)c2)cs1 (configuration not stated),740
16,CN(C)CC1CCCN1Cc1ccccc1-c1cnn(C)c(=O)c1Oc1ccc(F)cc1 (configuration not stated),1220
17,CC(=O)N[C@H](C(=O)Nc1cccc(-c2ccc(-c3nc4c(C)cccc4[nH]3)s2)c1)C(C)C,760
18,CN1CCC(C(=O)Nc2cccc(-c3ccc(-c4nc5ccccc5[nH]4)cc3)c2)CC1,1090
19,CC[C@H]1CN2CC[C@@H]1C[C@H]2[C@H](O)c1cc(N2CCC(N3CCCCC3)CC2)nc2ccc(OC)cc12,270
20,Oc1c(Br)cc2oc3c(c2c1CNCc1ccccc1)CCCC3,960
21,CCOc1cc(C(=O)Nc2cccnc2)cc(Br)c1OCCC(C)C,1080
22,CC(C)(C)OC(=O)N(Cc1cc(-n2nnnc2C(F)(F)F)ccc1O)[C@H]1CCCN(C(=O)OC(C)(C)C)[C@H]1c1ccccc1,720
23,CCCc1cc(C(=O)N[C@@H](Cc2ccccc2)[C@H](O)CNC2CCOCC2)c(F)c(N2CCCCS2(=O)=O)c1,170
24,COc1cccc(NC(=O)NC2CCN(c3ccnc(Nc4ccc(F)cc4)n3)C2)c1 (configuration not stated),570

row,Structure (SMILES),IC50 [nM]
1,CCOC(=O)c1[nH]c(-c2cccnc2)nc1NC(=S)NCc1ccccc1,710
2,O=C(NCc1ccc(Cl)c(Cl)c1)c1ccc(-c2nc3ccc(Cl)cc3[nH]2)cc1,900
3,CCN(CC)CCCOC(=O)c1ccc2c(c1)-c1ccc(C(=O)OCCCN(CC)CC)c3cccc-2c13,930
4,O=c1[nH]c(NCCCNCc2cc3c(Cl)cc(Cl)cc3[nH]2)nc2ccsc12,1120
5,CC(C)CCN1CCCN(Cc2ccc(C(=O)Nc3ccc(F)c(F)c3)cc2)CC1,940
6,CC(C)C[C@H](NC(=O)c1cc2ccccc2s1)C(=O)N[C@H]1CCN(Cc2ccc(I)c(OC3CCN(C)C3)c2)C1 (some centres not stated),920
7,N#Cc1ccc(N2CCN(Cc3ccc(-c4ccc(-c5nc6ccc(C(F)(F)F)cc6[nH]5)s4)cc3)CC2)nc1,810
8,O=C(Nc1cccc(-c2cccc(-c3nc4ccc(F)cc4[nH]3)c2)c1)Nc1ccc2c(c1)OCO2,140
9,CC1(C)CCC(C)(C)c2c1ccc(C1CCN(CCCCNC(=O)c3ccc(-c4ccc(C#N)cc4)cc3)CC1)c2O,230
10,CCC(C)CN1CCN(c2ccc(NC(=O)c3cccs3)cc2)C(C)C1 (configuration not stated),540
11,COc1ccc(Nc2ncc3c(-c4cccc(NC(=O)Cc5ccc(O)cc5)c4)c[nH]c3n2)cc1OC,570
12,CC(C)c1ccc(C=CC(=O)NC2CCC(CN3CCC(c4c[nH]c5ccccc45)CC3)CC2)cc1 (configuration not stated),810
13,CC(C)N1CCN(C(=O)c2ccc(CNCCCN3CCN(c4cccc(Cl)c4Cl)CC3)s2)CC1,720
14,Cc1c(C)c2c(c(C)c1O)CC[C@](C)(C(=O)N1CCC(CN3CCC(c4c[nH]c5ccccc45)CC3)CC1)O2,720
15,COc1cccc(CNC[C@@H](O)[C@H](Cc2ccccc2)NC(=O)c2cc(C(C)C)cc(N3CCCC3=O)c2)c1,950
16,O=C(NC1CCN(Cc2ccc3c(c2)OCCO3)CC1)c1ccc(-c2cccc(C(F)(F)F)c2)s1,1830
17,Cc1ccc(C(=O)Nc2ccc(F)c(F)c2F)cc1S(=O)(=O)N1CCCCC1,760
18,COc1ccc(S(=O)(=O)NC2CCN(c3ccc(C(F)(F)F)cc3NC(=O)OCC(C)C)CC2)cc1,1220
19,COc1ccc(-c2ccc(NC(=O)c3ccc(C#N)cc3)cc2)cc1CN1CCN(C)CC1,720
20,Cc1cccc(CNc2nc(C)cc(N[C@@H](CC(C)C)C(=O)NCCOc3ccccc3)n2)c1,1080
21,CN(C)CCOc1cc(O)c2c(c1)OC(C)(C)C=C2c1cccs1,290
22,COc1cc(NCCCNC(=O)c2cn(Cc3ccccc3)c3ccccc23)nc2ccccc12,870
23,NCC1CCCN1Cc1cccc(-c2ccc(-c3nc4ccc(C(F)(F)F)cc4[nH]3)cc2)c1 (configuration not stated),780
